Data set [1] deals with SK-BR-3 cells. Particulars: treated 1 hour, counted after 3 days, doxorubicin concentration.
Experimental: (A) SK-BR-3 cells. […] Cells in culture were treated for 1 hour with: conventional immunoliposomes (triangles); sterically stabilized (2 mole % PEG-PE) immunoliposomes (closed circles); control (irrelevant antibody) sterically stabilized (2 mole % PEG-PE) immunoliposomes (open circles); or free doxorubicin alone (closed squares). Immunoliposomes contained 60-70 μg antibody/μmol phospholipid and 55-80 μg doxorubicin/μmol phospholipid; antibody/doxorubicin ratio was 0.8-1.2. Cells were counted 3 days after treatment as described in Methods.
To test the cytotoxicity of doxorubicin-loaded immunoliposomes, SK-BR-3 or WI-38 cells in monolayer culture were incubated with free doxorubicin or doxorubicin-loaded immunoliposomes for 1 hour, and then washed extensively with media. The cells were then further incubated at 37° C. for 3 days, after which cell number was estimated by crystal violet staining as described above.
The subject of data set [2] is WI-38 cells. The experiment in a line: cytotoxicity of doxorubicin-loaded immunoliposomes, WI-38 cells. The class given is cell-based. Particulars: minimal p185^HER2.

As to `COc1cccc2c1C(=O)c1c(O)c3c(c(O)c1C2=O)C[C@@](O)(C(=O)CO)C[C@@H]3O[C@H]1C[C@H](N)[C@H](O)[C@H](C)O1` [doxorubicin], in data set [1], the IC50 cytotoxicity result is given as “approximately 0.3 μg/ml”. In addition, in data set [2], the “cytotoxicity against WI-38 cells” value is “significant dose-dependent cytotoxicity”.
